In PMC8113097 (Bioorganic & medicinal chemistry letters, 2021):

Legend:
LDHB = LDHB (Homo sapiens, UniProt P07195); assay: LDHB enzyme inhibition; assay type: biochemical
LDHA [1] = molecular target: T1, LDHA (Homo sapiens, UniProt P00338); assay: Binding to LDHA by SPR; conditions: for SPR τ: residence time on LDHA
Rat microsomal stability = assay type: in vitro ADME; conditions: microsomal data
PAMPA permeability = assay type: in vitro ADME
[2] = tested on: A673 Ewing's Sarcoma line; assay: Inhibition of proliferation; assay type: cell-based; conditions: A673 cells
LDHA [3] = molecular target: T1, LDHA; assay: LDHA enzyme inhibition; assay type: biochemical; conditions: 6g vs 6f

Chain of LDHB (P07195 whole entry): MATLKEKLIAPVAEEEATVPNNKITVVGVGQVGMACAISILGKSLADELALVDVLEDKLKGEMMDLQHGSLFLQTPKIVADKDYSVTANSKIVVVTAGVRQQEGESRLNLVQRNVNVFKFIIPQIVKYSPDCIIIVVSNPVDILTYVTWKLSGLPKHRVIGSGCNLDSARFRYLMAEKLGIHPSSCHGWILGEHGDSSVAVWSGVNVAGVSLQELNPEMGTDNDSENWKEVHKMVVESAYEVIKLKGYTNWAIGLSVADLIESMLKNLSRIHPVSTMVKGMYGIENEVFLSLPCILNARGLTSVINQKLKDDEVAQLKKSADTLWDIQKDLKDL

SMILES	IC50 (LDHB)	binding to LDHA by SPR (in words) (LDHA [1])	residence time / dissociation kinetics by SPR (in words) (LDHA [1])	SPR τ (LDHA [1])	metabolic stability (in words) (Rat microsomal stability)	PAMPA Perm (PAMPA permeability)	proliferation IC50 values (in words) [2]	fold less potent in LDHA inhibition compared with 6f (LDHA [3])
NS(=O)(=O)c1ccc(Cc2c(-c3ccc(F)c(OC4CC4)c3)nn(-c3nc(C(=O)O)cs3)c2CC2CC2)cc1F [12e]	3 nM	very tight binding	long residence times	19,230 s	reasonable	58 nm/s	–	–
Cc1ccc(Oc2cc(-c3nn(-c4nc(C(=O)O)cs4)c(CC4CC4)c3Cc3ccc(S(N)(=O)=O)c(F)c3)ccc2F)cc1 [12p]	19 nM	very tight binding	long residence times	9,708 s	quite poor	130 nm/s	submicromolar	–
NS(=O)(=O)c1ccc(Cc2c(-c3cccc(N4CCOCC4)c3)nn(-c3nc(C(=O)O)cs3)c2CC2CC2)cc1F [13a]	8 nM	–	faster dissociation kinetics	286 s	–	16 nm/s	–	–
NS(=O)(=O)c1ccc(Cc2c(-c3ccc(F)c(C(=O)NCc4ccccc4)c3)nn(-c3nc(C(=O)O)cs3)c2CC2CC2)cc1F [14d]	2 nM	–	–	–	–	87 nm/s	–	–
NS(=O)(=O)c1ccc(Cc2c(-c3cccc(Nc4ccccc4)c3)nn(-c3nc(C(=O)O)cs3)c2CC2CC2)cc1 [13h]	1 nM	–	faster dissociation kinetics	59 s	–	44 nm/s	–	–
NS(=O)(=O)c1ccc(Cc2c(-c3ccc(F)c(C(=O)N4CCCC4)c3)nn(-c3nc(C(=O)O)cs3)c2CC2CC2)cc1F [14b]	4 nM	–	–	–	good stability	57 nm/s	–	–
NS(=O)(=O)c1ccc(Cc2c(-c3ccc(F)c(OCc4ccc(C(F)(F)F)o4)c3)nn(-c3nc(C(=O)O)cs3)c2CC2CC2)cc1F [12j]	6 nM	very tight binding	long residence times	100,000 s	–	120 nm/s	submicromolar	–
NS(=O)(=O)c1ccc(Cc2c(-c3cccc(OCc4ccccc4)c3)nn(-c3nc(C(=O)O)cs3)c2CC2CC2)cc1F [12g]	5 nM	–	–	88,496 s	–	11 nm/s	submicromolar	–
NS(=O)(=O)c1ccc(Cc2cn(-c3nc(C(=O)O)cs3)nc2-c2cccc(OCc3cccnc3)c2)cc1 [6g]	–	–	–	–	–	–	–	~ 3 fold
NS(=O)(=O)c1ccc(Cc2c(-c3ccc(F)c(OCC4CC4(F)F)c3)nn(-c3nc(C(=O)O)cs3)c2CC2CC2)cc1F (centres unmarked) [12b]	3 nM	very tight binding	long residence times	21,052 s	reasonable	49 nm/s	–	–
NS(=O)(=O)c1ccc(Cc2c(-c3ccc(F)c(NC(=O)c4ccccc4)c3)nn(-c3nc(C(=O)O)cs3)c2CC2CC2)cc1F [13i]	2 nM	–	–	–	good stability	64 nm/s	–	–
NS(=O)(=O)c1ccc(Cc2c(-c3ccc(F)c(OCc4cccc(F)c4)c3)nn(-c3nc(C(=O)O)cs3)c2CC2CC2)cc1F [12h]	5 nM	very tight binding	long residence times	13,568 s	quite poor	29 nm/s	submicromolar	–
